Several values for one entry are separate records, joined by “and”; a condition that tells them apart may be missing. Equal values may be shown once.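 Values below derive from 48-hour exposures of cells grown in 96-well plates, with endpoints linearly interpolated between the two concentrations bracketing the appropriate inhibition level. At the GI50, growth is halved. TGI: total growth inhibition.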
How the values were obtained:
Experiment in all cases: DTP human tumour cell line panel, 48 h
MDA-MB-468 breast = test system: MDA-MB-468 breast
SK-MEL-28 melanoma = test system: SK-MEL-28 melanoma
OVCAR-4 ovarian = test system: OVCAR-4 ovarian
OVCAR-5 ovarian = test system: OVCAR-5 ovarian
HCT-116 colon = test system: HCT-116 colon
HS 578T breast = test system: HS 578T breast
SR leukemia = test system: SR leukemia
786-0 renal = test system: 786-0 renal
U251 CNS = test system: U251 CNS
HOP-92 NSCLC = test system: HOP-92 NSCLC
A549 NSCLC = test system: A549 NSCLC
SK-MEL-5 melanoma = test system: SK-MEL-5 melanoma
TK-10 renal = test system: TK-10 renal
CAKI-1 renal = test system: CAKI-1 renal
DU-145 prostate = test system: DU-145 prostate
K-562 leukemia = test system: K-562 leukemia
MOLT-4 leukemia = test system: MOLT-4 leukemia
A498 renal = test system: A498 renal
COLO 205 colon = test system: COLO 205 colon
SK-OV-3 ovarian = test system: SK-OV-3 ovarian
MALME-3M melanoma = test system: MALME-3M melanoma
HCT-15 colon = test system: HCT-15 colon
LOX IMVI melanoma = test system: LOX IMVI melanoma
MDA-MB-435 = test system: MDA-MB-435
M14 melanoma = test system: M14 melanoma
UACC-257 melanoma = test system: UACC-257 melanoma
CCRF-CEM leukemia = test system: CCRF-CEM leukemia
SK-MEL-2 melanoma = test system: SK-MEL-2 melanoma
HCC-2998 colon = test system: HCC-2998 colon
ACHN renal = test system: ACHN renal
SNB-19 CNS = test system: SNB-19 CNS
UO-31 renal = test system: UO-31 renal
SF-539 CNS = test system: SF-539 CNS
HL-60(TB) leukemia = test system: HL-60(TB) leukemia
RPMI-8226 leukemia = test system: RPMI-8226 leukemia
IGROV1 ovarian = test system: IGROV1 ovarian
HT29 colon = test system: HT29 colon
NCI-H226 lung = test system: NCI-H226 lung
MDA-MB-231 breast = test system: MDA-MB-231 breast
UACC-62 melanoma = test system: UACC-62 melanoma
NCI-H522 lung = test system: NCI-H522 lung
SF-268 CNS = test system: SF-268 CNS
PC-3 prostate = test system: PC-3 prostate
SNB-75 CNS = test system: SNB-75 CNS
SN12C renal = test system: SN12C renal

## Cc1ccccc1NC(=S)Nc1ccccn1
MDA-MB-468 breast
  GI50: 11.8 µM
  TGI: 81.2 µM

## COc1ccc(-c2[nH]ncc2-c2cc3c(c(OC)c2)OCC(=O)N3)cc1
MDA-MB-468 breast
  GI50: 0.354 µM
  TGI: 28.4 µM

## Cc1cc(C)nc(NC(N)=NCCc2ccccc2)n1
MDA-MB-468 breast
  GI50: 1.91 µM
  TGI: 8.95 µM

## CNC(=O)c1cc(COc2nnc(Nc3ccc(Cl)cc3)c3ccoc23)ccn1
MDA-MB-468 breast
  GI50: 6.94 µM and > 10 µM
  TGI: 30.9 µM and > 10 µM

## COC(=O)[C@@H](NC(=O)NC(=O)NC(=O)CI)C(C)C
MDA-MB-468 breast
  GI50: 3.89 µM
  TGI: 16 µM

## Cc1[nH]ncc1-c1cc2nc(C3CC4CCN3CC4)[nH]c(=O)c2s1 (stereo not given)
MDA-MB-468 breast
  GI50: 9.05 µM
  TGI: 32.2 µM

## C=CC(=O)Nc1ccc(Nc2nccc(-c3ccc(N4CCCC4)c(C#N)c3)n2)cc1
MDA-MB-468 breast
  GI50: 7.43 µM
  TGI: > 25 µM

## COC1=CC(c2ccc[nH]2)=N/C1=C\c1[nH]c(C)c(C(=O)OCc2ccccc2)c1C
MDA-MB-468 breast
  GI50: 0.0584 µM
  TGI: 0.73 µM

## COc1cc(/C(Cl)=C/C=C/C(=O)c2c(C)[n+]([O-])c3ccc(Cl)cc3[n+]2[O-])cc(OC)c1OC
MDA-MB-468 breast
  GI50: 1.87 µM
  TGI: 9.29 µM

## O=[N+]([O-])c1ccc(Nc2ccccc2-c2ccccc2)c2nonc12
MDA-MB-468 breast
  GI50: 5.2 µM
  TGI: 30.5 µM

## CC1=C([Se]CC(OC(=O)[C@@H](CSSC(C)(C)C)NC(=O)OC(C)(C)C)C(=O)NC(C)(C)C)C(=O)c2ccccc2C1=O (stereo not given in full)
MDA-MB-468 breast
  GI50: 1.66 µM
  TGI: 3.77 µM

## CC/C(Cc1ccccc1)=C(\c1ccc(OCCN2CCCCCC2)cc1)c1ccc(OC(=O)NCc2ccccc2)cc1
MDA-MB-468 breast
  GI50: 2.03 µM
  TGI: 8.15 µM

## Cc1c2cc[nH]c(=O)c2c(C)c2c1[nH]c1cc(OCCN3CCN(C)CC3)ccc12
MDA-MB-468 breast
  GI50: 0.355 µM
  TGI: 1.87 µM

## Cn1ccnc1C(=O)/C=C/c1ccc(NC(=O)c2ccc(F)cc2)cc1
MDA-MB-468 breast
  GI50: 2.87 µM
  TGI: 15.9 µM

## FC(F)(F)c1ccc(-c2nc(-c3nc4cc(Cl)c(Cl)cc4[nH]3)c3ccccn23)cc1
MDA-MB-468 breast
  GI50: 3.05 µM
  TGI: > 100 µM

## CC(=O)C1=C(O)C=C2Oc3c(C(=O)/C=C/c4cc(C(F)(F)F)cc(C(F)(F)F)c4)c(O)c(C)c(O)c3[C@]2(C)C1=O
MDA-MB-468 breast
  GI50: 1.29 µM
  TGI: 4.46 µM

## Cn1cc(-c2nonc2-c2c[nH]c3ccccc23)c2ccccc21
MDA-MB-468 breast
  GI50: 0.304 µM
  TGI: 3.12 µM

## Cc1nc2ccc(CN(C)c3ccc(C(=O)N[C@@H](CCC(=O)O)C(=O)O)s3)cc2c(=O)[nH]1
MDA-MB-468 breast
  GI50: 0.0578 µM
  TGI: > 100 µM

## COc1cc2c(cc1OCCCN1CCN(CCCOc3cc4c(cc3OC)C(=O)N3CCC[C@H]3C=N4)CC1)C=CC(C)(C)O2
MDA-MB-468 breast
  GI50: 0.469 µM
  TGI: 2.45 µM

## C=C1C(=O)O[C@H]2[C@H]1CC/C(CNC(=O)/C=C/c1ccc(Br)cc1)=C\CC[C@@]1(C)O[C@@H]21
MDA-MB-468 breast
  GI50: 0.391 µM
  TGI: 1.67 µM

## O=P([O-])(O)OP(=O)([O-])O.[NH-][C@H]1CCCC[C@@H]1[NH-].[OH-].[OH-].[Pt+4]
MDA-MB-468 breast
  GI50: 18.8 µM
  TGI: 39.9 µM

## CO[C@H](C(=O)[C@@H](O)[C@@H](C)O)[C@@H]1Cc2cc3cc(O[C@H]4C[C@@H](O[C@H]5C[C@@H](O)[C@H](O)C(C)O5)[C@H](O)C(C)O4)c(C)c(O)c3c(O)c2C(=O)[C@H]1O[C@H]1C[C@@H](O[C@H]2C[C@@H](O[C@H]3C[C@@H](OC)[C@H](O)C(C)O3)[C@@H](O)C(C)O2)C(O)(O)C(C)O1 (stereo not given in full)
MDA-MB-468 breast
  GI50: 0.138 µM
  TGI: 1.17 µM

## CN1CCN(c2ccc(C(=O)Nc3n[nH]c4ccc(Cc5cc(F)cc(F)c5)cc34)c(NC3CCOCC3)c2)CC1
MDA-MB-468 breast
  GI50: 1.35 µM
  TGI: 3.09 µM and 2.91 µM

## Cc1ccc(C(=O)N(CCCN)[C@@H](c2nc3cc(Cl)ccc3c(=O)n2Cc2ccccc2)C(C)C)cc1
MDA-MB-468 breast
  GI50: < 0.01 µM
  TGI: < 0.01 µM

## Cn1cc(-c2cc3nc(-c4c[nH]c5ccc(Br)cc45)cc(N)n3n2)c2ccccc21
SK-MEL-28 melanoma
  GI50: 1.78 µM
  TGI: 3.22 µM
OVCAR-4 ovarian
  GI50: 1.71 µM
  TGI: 3.49 µM
OVCAR-5 ovarian
  GI50: 1.62 µM
  TGI: 3.26 µM
HCT-116 colon
  GI50: 3 µM
  TGI: > 100 µM
HS 578T breast
  GI50: 1.98 µM
  TGI: 4.87 µM
SR leukemia
  GI50: 1.65 µM
  TGI: 5.28 µM
786-0 renal
  GI50: 1.6 µM
  TGI: 3.27 µM
U251 CNS
  GI50: 1.72 µM
  TGI: 3.27 µM
HOP-92 NSCLC
  GI50: 1.51 µM
  TGI: 3.08 µM
A549 NSCLC
  GI50: 1.53 µM
  TGI: 3.45 µM
SK-MEL-5 melanoma
  GI50: 1.71 µM
  TGI: 3.15 µM
TK-10 renal
  GI50: 1.43 µM
  TGI: 2.79 µM
CAKI-1 renal
  GI50: 1.5 µM
  TGI: 3.06 µM
DU-145 prostate
  GI50: 1.92 µM
  TGI: 3.75 µM
K-562 leukemia
  GI50: 2.29 µM
  TGI: 5.94 µM
MOLT-4 leukemia
  GI50: 1.67 µM
  TGI: 5.15 µM
A498 renal
  GI50: 1.67 µM
  TGI: 3.34 µM
COLO 205 colon
  GI50: 1.89 µM
  TGI: 3.51 µM
SK-OV-3 ovarian
  GI50: 1.98 µM
  TGI: 4.03 µM
MALME-3M melanoma
  GI50: 1.66 µM
  TGI: 3.01 µM
HCT-15 colon
  GI50: 1.43 µM
  TGI: 2.79 µM
LOX IMVI melanoma
  GI50: 1.68 µM
  TGI: 3.04 µM
MDA-MB-435
  GI50: 1.71 µM
  TGI: 3.09 µM
M14 melanoma
  GI50: 2.29 µM
  TGI: 5.78 µM
UACC-257 melanoma
  GI50: 1.72 µM
  TGI: 3.26 µM
CCRF-CEM leukemia
  GI50: 2.67 µM
  TGI: 9.34 µM
SK-MEL-2 melanoma
  GI50: 1.74 µM
  TGI: 3.48 µM
HCC-2998 colon
  GI50: 1.79 µM
  TGI: 3.26 µM
ACHN renal
  GI50: 1.69 µM
  TGI: 3.13 µM
SNB-19 CNS
  GI50: 1.67 µM
  TGI: 3.09 µM
UO-31 renal
  GI50: 1.43 µM
  TGI: 2.73 µM
SF-539 CNS
  GI50: 1.66 µM
  TGI: 3.07 µM
HL-60(TB) leukemia
  GI50: 1.84 µM
  TGI: 4.34 µM
RPMI-8226 leukemia
  GI50: 2.73 µM
  TGI: 7.93 µM
IGROV1 ovarian
  GI50: 1.5 µM
  TGI: 2.98 µM
HT29 colon
  GI50: 1.66 µM
  TGI: 3.08 µM
NCI-H226 lung
  GI50: 1.96 µM
  TGI: 5.07 µM
MDA-MB-231 breast
  GI50: 1.77 µM
  TGI: 3.17 µM
MDA-MB-468 breast
  GI50: 1.49 µM
  TGI: 3.01 µM
UACC-62 melanoma
  GI50: 1.54 µM
  TGI: 2.92 µM
NCI-H522 lung
  GI50: 1.5 µM
  TGI: 3.08 µM
SF-268 CNS
  GI50: 1.89 µM
  TGI: 4.43 µM
PC-3 prostate
  GI50: 1.64 µM
  TGI: 3.24 µM
SNB-75 CNS
  GI50: 1.32 µM
  TGI: 3.11 µM
SN12C renal
  GI50: 1.65 µM
  TGI: 3.05 µM

## OCC1OC(c2scc3c(=S)nc[nH]c23)C(O)C1O (stereo not given)
MDA-MB-468 breast
  GI50: 8.39 µM
  TGI: > 100 µM

## COc1cc(-c2nn3c(/C=C4/C(=O)Nc5ccccc54)c(-c4ccc(C)cc4)nc3s2)cc(OC)c1OC
MDA-MB-468 breast
  GI50: 4.84 µM
  TGI: 30.6 µM

## O=C(/C=C/c1ccc(B(O)O)cc1)/C=C/c1ccc(B(O)O)cc1
MDA-MB-468 breast
  GI50: 1.72 µM
  TGI: 4.34 µM

## CN(C)CCCOc1ccccc1NC1=C(Cl)C(=O)C(Nc2ccccc2OCCCN(C)C)=C(Cl)C1=O
MDA-MB-468 breast
  GI50: 0.175 µM
  TGI: 0.352 µM

## O=S(=O)(Nc1ncccn1)c1ccc(N=Nc2ccc(O)c3ncccc23)cc1
MDA-MB-468 breast
  GI50: 8.83 µM
  TGI: 31.2 µM

## Nc1ccn(C2OC(CO)C(O)C2F)c(=O)n1 (stereo not given)
MDA-MB-468 breast
  GI50: > 5000 µM
  TGI: > 5000 µM

## COc1cc(C(=O)OCCCCCCCCCCC[P+](c2ccccc2)(c2ccccc2)c2ccccc2)ccc1O
MDA-MB-468 breast
  GI50: 0.284 µM
  TGI: 1.09 µM

## CN1CCc2cc3c(cc2C1O)OCO3 (stereo not given)
MDA-MB-468 breast
  GI50: 16 µM and > 100 µM
  TGI: 34.4 µM and > 100 µM

## C[n+]1c(/C=C\C=C\N2CCCCC2)sc2ccccc21
MDA-MB-468 breast
  GI50: 0.238 µM
  TGI: 3.8 µM

## Cc1c2cnccc2c(C)c2c1c1cc(C3OCCCO3)ccc1n2C
MDA-MB-468 breast
  GI50: 0.26 µM
  TGI: 0.928 µM

## CC(C)[C@](O)(c1ccc2cc(OC(F)F)c(OC(F)F)cc2c1)c1cn[nH]n1
MDA-MB-468 breast
  GI50: 20.9 µM and 14.2 µM
  TGI: 57.6 µM and 41.3 µM
